Series [1] relates to VW intimal hyperplasia of injured carotid arteries. The series can be described thus: Intimal hyperplasia after carotid artery pressure injury in rabbits. Type of series: in vivo, New Zealand white rabbits. The settings on record: for intimal hyperplasia: 1,000 μg/kg/day for 7 days. The protocol: (§1) New Zealand white rabbits (half males/half females; 2.5-2.9 kg) were used throughout. Rabbits were treated with 100, 400 or 1000 μg/kg/day of purified 13-HODE suspended in corn oil or ethyl-eicosapentaenoic acid (EPA), or with an equivolume of either suspending vehicle (total volume 1 ml) for 7 days. Serial blood samples were collected before, during and after treatment to assess the levels of 13-HODE in plasma. On day 7, the treatments were stopped. At that time, the rabbits were anaesthetised with a combination of Atravet, Ketamine, Vetrepham and glycopyrolate, given subcutaneously. Both carotid arteries of anaesthetised rabbits were isolated between 2 temporary ligatures, first by applying the proximal ligature, then allowing the blood to drain from the segment, and then applying the distal ligature. A 24-gauge angiocath attached to tubing filled with sterile saline and connected to a pressure manometer, was inserted into the isolated segment. Then the segment was filled with the saline to a pressure of 600 mm Hg which was maintained for 5 minutes. The pressure was relieved, and the angiocath and ligatures were removed, thereby allowing for blood flow restoration. Cessation of bleeding from the needle puncture site was achieved within 3 minutes without any manual manipulation. The incisions were sutured closed with 000 proline. The rabbits were injected intramuscularly with Temgesic to minimize any pain and with 12.5 mg Baytril as an antibiotic, and then allowed to recover. This injury procedure results in endothelial denudation and the exposure of a thrombogenic surface within 1 hour of restoration of blood flow, followed by SMC proliferation and intimal hyperplasia, which plateaus at 4 weeks and which is sustained for ±12 weeks (Buchanan MR, Brister SJ: 1998; Buchanan MR et al. 1999).
(§2) Two, four or twelve weeks later, the rabbits were re-anaesthetised and their injured carotid arteries were again isolated. Segments of injured and uninjured carotid artery were harvested and processed histologically to assess VW hyperplasia. Other VW segments and blood samples were collected and processed for VW and plasma 13-HODE levels.

Series [2] can be described thus: Plasma 13-HODE levels in rabbits after oral 13-HODE. Type of series: in vivo, New Zealand white rabbits. Here is the method: as §1, §2
The nature of series [3]: Vessel wall 13-HODE levels in rabbits after oral 13-HODE. Type of series: in vivo, New Zealand white rabbits. Here is the method: as §1, with “The rabbits were injected intramuscularly with Temgesic to minimize any pain and with 12.5 mg Baytril as an antibiotic, and then allowed to recover. This injury procedure results in endothelial denudation and the exposure of a thrombogenic surface within 1 hour of restoration of blood flow, followed by SMC proliferation and intimal hyperplasia, which plateaus at 4 weeks and which is sustained for ±12 weeks (Buchanan MR, Brister SJ: 1998; Buchanan MR et al. 1999).” left out

A short description of series [4]: Observation of hemorrhagic defect in the experimental animals. The settings on record: any of the experimental animals. The class given is in vivo, rabbits. Here is the method:
as §1, with “The rabbits were injected intramuscularly with Temgesic to minimize any pain and with 12.5 mg Baytril as an antibiotic, and then allowed to recover. This injury procedure results in endothelial denudation and the exposure of a thrombogenic surface within 1 hour of restoration of blood flow, followed by SMC proliferation and intimal hyperplasia, which plateaus at 4 weeks and which is sustained for ±12 weeks (Buchanan MR, Brister SJ: 1998; Buchanan MR et al. 1999).” left out

The nature of series [5]: Stability of 13-HODE in dosage forms (oil or ester carrier). To be noted: dissolved in a triglyceride oil carrier or an ester. Type of series: physicochemical. Here is the method:
A real problem is presented by the fact that active daily doses of 13-HODE are in the 50 to 1,000 μg/kg/day range. […] That translates into a […] dose for a 70 kg person. Since doses for humans are often considerably lower than doses for animals because of a weight/body surface area scaling, a daily dose of as little as 5 mg or less is really possible. Formulating an oily liquid is such small doses is a problem. It could be absorbed into tabletting materials and tabletted and coated, or micro-encapsulated by methods well known to those skilled in the art. […] Other triglyceride oils such as vegetable oil, including sunflower, safflower, soy, evening primrose, borage, coconut or palm oil, or cottonseed, rapeseed, olive, fish body or fish liver oils may all be used for this purpose. Particualrly useful esters for this purpose are esters of fatty acids with 16-26 carbon atoms and one or more double bonds in the chain.

The conditions of series [6]: dose comparable to that used clinically; cited from earlier work.
Series [7] has as its system Platelet/injured VW interactions. The settings on record: dose comparable to that used clinically; cited from earlier work.
For another series, the system named is intimal SMC hyperplasia. To be noted: cited from earlier work.
The next series deals with Sarcoma 180 tumors. To be noted: given orally; cited from earlier work.
The conditions of series [8]: human, in vivo; cited from earlier work.
Series [9] concerns Platelet/injured VW interactions. The settings on record: 3.2 gm daily for 30 days; cited from earlier work.
The conditions of series [10]: 3.2 gm daily (20 capsules) for 30 days; cited from earlier work.
Setting [11] is: suspended in ethyl-EPA, all treatment levels.

Like-named read-outs stand apart in the source and are kept apart here. A value given as a limit tells only on which side of the number the result lay.

Consider `CCCCCC(O)/C=C/C=C\CCCCCCCC(=O)O` (stereo not shown) [13-HODE, 13-hydroxyoctadeca-9Z, 11E-dienoic acid], for which the “intimal VW hyperplasia” value in series [1] (100 μg/kg/day for 7 days, in corn oil or ethyl-EPA, p<0.001) was “significantly inhibited”. Besides, the intimal hyperplasia is given as 8% in series [1] (2 weeks after injury, placebo 18%); 16% in [1] (4 weeks after injury, placebo 38%); greater than 3% in series [1] (12 weeks after injury). In addition, in series [2] (100 μg/kg/day oral, 7 days, suspended in corn oil), the “increase in the plasma 13-HODE levels” value was “three-fold”. Moreover, the “time to significantly elevated 13-HODE level in cell-free plasma” value in series [2] (1,000 μg/kg/day oral) is reported as no more than 3 days. In addition, in [2] (1,000 μg/kg/day vs 100 μg/kg/day, corn oil), the “effect of increasing the dose on plasma 13-HODE levels” value is given as “no further effect”. The “time 13-HODE level in cell-free plasma remained elevated” value in series [2] (1,000 μg/kg/day, treatment stopped after 7 days) is 4 weeks. Moreover, the “time for plasma 13-HODE levels to return to almost control levels” value in series [2] (after 7 day oral treatment, corn oil) lay in the range of 14 to 21 days. The “absolute levels of plasma 13-HODE versus corn oil vehicle” value in series [2] (setting [11]) is “lower”. Besides, the “VW 13-HODE levels” value in [3] (suspended in corn oil, measured 28 days after stopping the treatment) is on record as “dose-related increase”. Besides, in series [3] (setting [11]), the “absolute levels of VW 13-HODE versus corn oil vehicle” value is given as “somewhat lower”. The hemorrhagic defect result in series [4] is given as “no detectable hemorrhagic defect”. Moreover, the “stability of dosage form” value in series [5] is “stable without degradation”.
`OCCN(CCO)c1nc(N2CCCCC2)c2nc(N(CCO)CCO)nc(N3CCCCC3)c2n1` [Persantine, dipyridamole]: in [6], the “increase of VW 13-HODE” value is 30 to 50%. Further, in series [7], the “decrease of platelet/injured VW interactions” value is recorded as greater than 2 fold. Besides, the SMC hyperplasia entry in the series on intimal SMC hyperplasia (1 mg/kg/day for 7 days before injury, 4 weeks after VW injury) was “inhibited”. For the same compound, the platelet function result in the series with intimal SMC hyperplasia (1 mg/kg/day for 7 days) was “unchanged”.
In the case of `CCCCC/C=C\C=C\C(O)CCCCCCCC(=O)O` (stereo not shown) [9-HODE, 9-hydroxy-10(E)12(Z) octadecadienoic acid], in the series on Sarcoma 180 tumors, the “minimum effective dose for inhibition of tumour growth rate” value is on record as 55 mg/kg/day.
Take `CC(=O)Oc1ccccc1C(=O)O` [ASA]: in series [8], the “overall risk reduction (stroke, myocardial infarction, transient ischemic attacks)” value is reported as 25%.
Take `CCCCC/C=C\C/C=C\CCCCCCCC(=O)O` [linoleic acid, Octa-deca-9Z, 12Z-dienoic acid]: the “decrease of platelet/injured VW interactions” value in series [9] is reported as greater than 2 fold. In addition, the “increase of VW 13-HODE levels” value in series [10] is listed as 2 fold.
